Data published in patent US7498350B2, “Oxazolidinones as antibacterial agents” (AstraZeneca AB, priority 2002, dated 2009).
Converted amounts (≈) assume the structure as drawn.

How the values were obtained:
Type in all cases: cell-based
[1] = test system: Staphylococcus aureus MRQR (methicillin resistant and quinolone resistant); assay: MIC by agar dilution, Staphylococcus aureus MRQR; settings: 10^4 CFU/spot, 37° C., 24 hours
Method: (§1) The following results were obtained on a standard in-vitro test system. The activity is described in terms of the minimum inhibitory concentration (MIC) determined by the agar-dilution technique with an inoculum size of 10^4 CFU/spot. Typically, compounds are active in the range 0.01 to 256 μg/ml.
(§2) Staphylococci were tested on agar, using an inoculum of 10^4 CFU/spot and an incubation temperature of 37° C. for 24 hours—standard test conditions for the expression of methicillin resistance.

[2] = test system: Staphylococcus aureus MSQS (methicillin sensitive and quinolone sensitive); assay: MIC by agar dilution, Staphylococcus aureus MSQS; settings: 10^4 CFU/spot, 37° C., 24 hours
Method: as §1, §2

[3] = test system: Haemophilus influenzae; assay: MIC, Haemophilus influenzae (fastidious Gram negative, Mueller-Hinton broth); settings: Mueller-Hinton broth with hemin and NAD, 24 hours, 37° C., 5×10^4 CFU/well
Method: as §1
(§3) Streptococci and enterococci were tested on agar supplemented with 5% defibrinated horse blood, an inoculum of 10^4 CFU/spot and an incubation temperature of 37° C. in an atmosphere of 5% carbon dioxide for 48 hours—blood is required for the growth of some of the test organisms. Fastidious Gram negative organisms were tested in Mueller-Hinton broth supplemented with hemin and NAD, grown aerobically for 24 hours at 37° C., and with an innoculum of 5×10^4 CFU/well.

[4] = test system: Moraxella catarrhalis; assay: MIC, Moraxella catarrhalis (fastidious Gram negative, Mueller-Hinton broth); settings: Mueller-Hinton broth with hemin and NAD, 24 hours, 37° C., 5×10^4 CFU/well
Method: as §1, §3

[5] = test system: Linezolid Resistant Streptococcus pneumoniae; assay: MIC by agar dilution, Linezolid Resistant Streptococcus pneumoniae; settings: agar with 5% defibrinated horse blood, 10^4 CFU/spot, 37° C., 5% carbon dioxide, 48 hours
Method: as §1, §3

[6] = test system: Streptococcus pneumoniae; assay: MIC by agar dilution, Streptococcus pneumoniae; settings: agar with 5% defibrinated horse blood, 10^4 CFU/spot, 37° C., 5% carbon dioxide, 48 hours
Method: as §1, §3

[7] = test system: Enterococcus faecium; assay: MIC by agar dilution, Enterococcus faecium; settings: agar with 5% defibrinated horse blood, 10^4 CFU/spot, 37° C., 5% carbon dioxide, 48 hours
Method: as §1, §3

MIC [1]: 0.25 µg/mL (≈ 0.593 µM)
MIC [2]: 0.25 µg/mL (≈ 0.593 µM)
MIC [3]: 2 µg/mL (≈ 4.75 µM)
MIC [4]: 0.25 µg/mL (≈ 0.593 µM)
MIC [5]: 0.5 µg/mL (≈ 1.19 µM)
MIC [6]: < 0.06 µg/mL
MIC [7]: 0.25 µg/mL (≈ 0.593 µM)
SMILES: Cn1nnc(-c2ccc(-c3ccc(N4C[C@H](Cn5ccnn5)OC4=O)cc3F)cn2)n1 [Example 1, (5R)-3-(3-Fluoro-4-(6-(2-methyl-2H-tetrazol-5-yl)pyrid-3-yl)phenyl)-5-(1H-1,2,3-triazol-1-ylmethyl)-1,3-oxazolidin-2-one]
